Here are results for one compound from patent publication US20240197760A1, “ACTIVATORS OF INTEGRATED STRESS RESPONSE PATHWAY FOR PROTECTION AGAINST FERROPTOSIS” (Burke Neurological Institute, priority 2021, published 2024).

One experiment relates to 5×FAD mice. The experiment is described as follows: Intracerebroventricular Alzet pump infusion in 5×FAD and wild type mice: Bdnf, LTP, Y-maze, Morris water maze. Type of experiment: in vivo, mouse. An excerpt:
All animal procedures were approved by the Weill Cornell Medicine Institutional Animal Care and Use Committee (Animal protocol: 2014-0029) and conducted in accordance with the NIH Guide for the Care and Use of Laboratory Animals and ARRIVE guidelines. We used C57/BL6 mice for the induction of ischemic stroke and hemorrhagic stroke. 8-10 weeks old female pregnant CD1 mice were used for primary neuronal culture. Ppp1R15b^flox/flox mice were obtained from Ann-Hwee Lee's group currently working at Regeneron and were bred at Burke Neurological Institute. The genotypes of Ppp1R15b^flox/flox mice were assessed with PCR using DNA isolated from clipped tails of mice. Twelve weeks old male Ppp1R15b^flox/flox mice were used for inactivation of R15b regulatory subunit of protein phosphatase 1 in the hippocampus through AAV8 GFP or Cre intracranial injection. In the current study, 5×FAD mouse was used as a model of AD as this model represents pathological characteristics seen in both genetic as well as sporadic forms of AD. 5×FAD mice (B6/SJL genetic background) was purchased from Jackson's laboratory and was maintained by breeding male heterozygous transgenic mice with wild type female mice. The 5×FAD mice express human APP and PSEN1 transgenes with a total of five AD-linked mutations: the Swedish (K670N/M671L), Florida (I716V), and London (V717I) mutations in APP, and the M146L and L286V mutations in PSEN1. In the current study, 6-7 months old 5×FAD mice were used for the Alzet mini osmotic pump implantation followed by memory assessment, LTP assessment, and gene expression studies.
Brains were quickly removed from mice sacrificed by cervical dislocation and placed in cold artificial cerebrospinal fluid (ACSF) (bubbled with 95% O2/5% CO2) containing (in mM): 124 NaCl, 4 KCl, 1 Na2HPO4, 25 NaHCO3, 2 CaCl2, 2 MgCl2, and 10 glucose. The pH and osmolarity of the solution were 7.4 and 310 mOsm/L, respectively. The hippocampus was isolated and placed on a mechanical tissue chopper to produce transverse hippocampal slices of 400 μm thickness. Slices were maintained in a humidified interface chamber at 29° C. and continuously perfused (˜1 mL/min) with 95% O2/5% CO2-bubbled ACSF. Hippocampal slices were allowed to recover for at least 90 min prior to beginning the experiment. For recordings, glass electrodes were filled with ACSF and positioned in the CA1 stratum radiatum to record fEPSPs evoked by local stimulation (0.1 ms) of Schaffer collateral fibers using a bipolar concentric electrode placed laterally to the recording electrode (˜150 μm). For LTP recordings, the voltage intensity of the stimulation test pulse (square pulse, 100 us duration) for each slice was determined to be the voltage intensity that had generated 30-40% of the maximum slope obtained using input-output relationships. Facilitation was calculated as the ratio of the slopes of the second and first fEPSPs, and plotted as a function of the inter-pulse duration. For LTP, a test pulse was applied every minute. Following a steady baseline of 15 min, potentiation was induced with either 100 Hz for 1 s (weak stimulation) or 3 theta-burst stimulations (TBS; 15 s interval), each one involving a single train of 10 bursts at 5 Hz, where each burst is composed of 4 pulses at 100 Hz (strong stimulation). The fEPSP slopes following tetanic stimulation were normalized to the average of the slopes of the fEPSPs acquired during the baseline. Residual potentiation was calculated as the average of the last 15 min of 2 h of recordings.
The sterile Alzet mini osmotic pumps (Durect, pump model 1004) were filled with 100 μl of either saline or 2-deoxyglucose (10 μg/μl) and were incubated in saline for 24 h to allow the osmotic release of the drug. Thereafter, the pumps were attached properly with the plastic tubing provided in the brain infusion kit 2 3-5 mm (Durect, catalog number 0008663). We made an intracerebroventricular groove stereotaxically in the mouse brain. […]

The next experiment relates to AMP/ATP ratio. Description: AMP/ATP ratio from metabolic profiling of mouse primary neurons. In kind it is cell-based. As to conditions: 10 mM, 8 h. As to the method: Targeted Metabolite profiling was performed according to a method described in a previous publication (Chen et al., 2016). Polar metabolites were extracted using cold 80% methanol. The extracts were dried completely with a Speedvac and redissolved in water before it was applied to the hydrophilic interaction chromatography LC-MS. The sample injection order was randomized. Metabolites were measured on a Q Exactive Orbitrap mass spectrometer (Thermo Scientific), which was coupled to a Vanquish UPLC system (Thermo Scientific) via an Ion Max ion source with a HESI II probe (Thermo Scientific). A Sequant ZIC-[…] column (2.1 mm i.d.×150 mm, particle size of 5 μm, Millipore Sigma) was used for separation of metabolites. A 2.1×20 mm guard column with the same packing material was used for protection of the analytical column. Flow rate was set at […]. […] The MS data was processed using XCalibur 4.1 (Thermo Scientific) to extract the metabolite signal intensity for relative quantitation. […] In pathway enrichment analysis, a single P value is calculated for each metabolic pathway. Pathway topology analysis measured the significance of a given experimentally identified metabolite in a pre-defined metabolic pathway.

Where [1] appears, read: ICV Alzet pump, four weeks, wild type mice.
Where [2] appears, read: ICV Alzet pump, four weeks, versus wild type mice treated with saline.

As for `OC[C@H]1OC(O)C[C@@H](O)[C@@H]1O` (stereo partly drawn) [2-DG, (4R,5S,6R)-6-(hydroxymethyl)oxane-2,4,5-triol], in the experiment on 5×FAD mice (setting [1]), the “Bdnf gene expression in wild type mice” value was “didn't lead to nootropic upregulation”, the “LTP in wild type mice” value was “didn't lead to nootropic upregulation”, the “Morris water maze task in wild type mice” value was “did not show any nootropic increase” and the “Y-maze task in wild type mice” value is reported as “did not show any nootropic increase”. Besides, the “LTP in hippocampal slices from 5×FAD mice” value in the experiment on 5×FAD mice (ICV Alzet pump, four weeks, 5×FAD (saline) vs 5×FAD (2-DG) p=0.0194) is on record as “normalized”. In the experiment on 5×FAD mice (setting [2]), the “Bdnf gene expression in 5×FAD mice” value is reported as “normalized”; the “spatial long-term memory in Morris water maze, 5×FAD mice” value is given as “normalized these memories”; the “spatial short-term memory, spontaneous alternation test in Y-maze, 5×FAD mice” value is reported as “normalized these memories”. The “driving the adaptive plasticity program” value in the experiment on 5×FAD mice (intracerebroventricular infusion at 1 g/Kg/day) is listed as “sufficient in driving the adaptive plasticity program”. For the same compound, in the experiment with AMP/ATP ratio, the AMP-ATP ratio result is on record as “increase”.
